Results reported in paper PMC4475277 (Chemistry & biology, 2015).

Key:
[1] = target: T1, bsNOS (WT) (Bacillus subtilis, UniProt O34453); conditions: read-out: WT - KS; imidazole displacement; ref Wang et al., 2004; cited from earlier work
T1 sequence (O34453 1-363): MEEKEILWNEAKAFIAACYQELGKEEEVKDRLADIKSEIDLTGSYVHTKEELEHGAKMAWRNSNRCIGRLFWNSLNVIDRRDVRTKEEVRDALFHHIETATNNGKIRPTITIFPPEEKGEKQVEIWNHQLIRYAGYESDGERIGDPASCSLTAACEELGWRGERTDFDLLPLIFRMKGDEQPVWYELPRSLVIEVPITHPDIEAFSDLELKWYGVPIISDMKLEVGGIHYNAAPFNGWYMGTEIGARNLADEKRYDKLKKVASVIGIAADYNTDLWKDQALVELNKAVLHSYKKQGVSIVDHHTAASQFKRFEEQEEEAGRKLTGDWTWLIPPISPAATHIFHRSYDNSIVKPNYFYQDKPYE

[2] = target: I218V bsNOS (Bacillus subtilis, UniProt O34453, I218V); conditions: read-out: I218V - KS; imidazole displacement; ref Wang et al., 2004; cited from earlier work
[3] = test system: bBiDomain (a chimera of bsNOS and redox partner YkuN); experiment: bBiDomain single time point bacterial NOS activity inhibition; format: biochemical, Bacillus subtilis; conditions: inhibitor 30 µM, NOHA 200 µM, 4 min at 35 °C

Sequence of I218V bsNOS (O34453 whole entry I218V): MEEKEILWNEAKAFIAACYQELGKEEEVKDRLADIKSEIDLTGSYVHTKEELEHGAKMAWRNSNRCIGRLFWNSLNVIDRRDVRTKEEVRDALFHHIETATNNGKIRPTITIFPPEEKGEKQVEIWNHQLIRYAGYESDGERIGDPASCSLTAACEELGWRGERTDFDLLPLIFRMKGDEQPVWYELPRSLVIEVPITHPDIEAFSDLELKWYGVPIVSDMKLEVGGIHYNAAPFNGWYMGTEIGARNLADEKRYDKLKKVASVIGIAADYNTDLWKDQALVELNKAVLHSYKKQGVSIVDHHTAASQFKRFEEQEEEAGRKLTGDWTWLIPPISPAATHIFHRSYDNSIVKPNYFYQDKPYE

Row | SMILES | Kd [1] [µM] | Kd [2] [µM] | % nitrite (nitrite with inhibitor divided by nitrite without inhibitor) [3] [% nitrite]
1 | N=C(N)NCCC[C@H](N)C(=O)O [L-Arg] | 4.8 ± 0.1 | 2 ± 0.2 | 
2 | NC(=NCCC[C@H](N)C(=O)O)N[N+](=O)[O-] [L-NNA] |  |  | 40.9 ± 5.3
